Each compound was assayed against Human factor D (Homo sapiens (Human), UniProt P00746) (assay: Human Factor D Assay). Conditions: Human factor D purified from human serum, 80 nM; substrate Z-L-Lys-SBzl with DTNB; assay of Example 8.
Type: biochemical
Procedure: The assay of Example 8 was used to determine the IC50's of the compounds. Other standard factor D inhibition assays are also available.
Example 8. Human Factor D Assay
Human factor D (purified from human serum, Complement Technology, Inc.) at 80 nM final concentration is incubated with test compound at various concentrations for 5 minutes at room temperature in 50 mM Tris, 1M NaCl, pH 7.5. A synthetic substrate Z-L-Lys-SBzl and DTNB (Ellman's reagent) are added to final concentrations of 100 µM each. The increase in color is recorded at OD405 nm in a microplate in kinetic mode over 30 minutes with 30 second time points in a […]. IC50 values are calculated by non-linear regression from the percentage of inhibition of complement factor D activity as a function of test compound concentration.

Sequence of Human factor D (P00746 26-253): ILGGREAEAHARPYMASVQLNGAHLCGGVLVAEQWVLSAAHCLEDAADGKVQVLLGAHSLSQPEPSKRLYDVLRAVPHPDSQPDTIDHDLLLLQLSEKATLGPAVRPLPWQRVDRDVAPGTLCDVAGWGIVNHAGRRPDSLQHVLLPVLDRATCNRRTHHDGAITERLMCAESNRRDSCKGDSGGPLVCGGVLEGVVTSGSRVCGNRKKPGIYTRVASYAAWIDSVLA

SMILES	IC50 [nM]
CC(=O)c1cn(CC(=O)N2C[C@H](F)C[C@H]2C(=O)NCc2cccc(Cl)c2F)c2cc(OCS(N)(=O)=O)ccc12 [Compound 17, (2S,4R)-1-(2-(3-acetyl-6-(sulfamoylmethoxy)-1H-indol-1-yl)acetyl)-N-(3-chloro-2-fluorobenzyl)-4-fluoropyrrolidine-2-carboxamide]	< 1000
CC(=O)c1cn(CC(=O)N2C[C@H](F)C[C@H]2C(=O)NCc2cccc(Cl)c2F)c2cc(Oc3ncccn3)ccc12 [Compound 30, (2S,4R)-1-(2-(3-acetyl-6-(pyrimidin-2-yloxy)-1H-indol-1-yl)acetyl)-N-(3-chloro-2-fluorobenzyl)-4-fluoropyrrolidine-2-carboxamide]	< 1000
CCOP(=O)(COc1ccc2c(C(C)=O)cn(CC(=O)N3C[C@H](F)C[C@H]3C(=O)N[C@H](C)c3cccc(Cl)c3F)c2c1)OCC [Compound 18, diethyl (3-acetyl-1-(2-((2S,4R)-2-((R)-1-(3-chloro-2-fluorophen-yl)ethylcarbamoyl)-4-fluoropyrrolidin-1-yl)-2-oxoethyl)-1H-indol-6-yloxy)methylphosphonate]	< 1000
NC(=O)c1nn(CC(=O)N2C[C@H](F)C[C@H]2C(=O)Nc2cccc(-c3ccccc3Cl)c2F)c2ccc(Oc3cncnc3)cc12 [Compound 31, 1-(2-((2S,4R)-2-(2′-chloro-2-fluorobiphenyl-3-ylcarbamoyl)-4-fluoropyrrolidin-1-yl)-2-oxoethyl)-5-(pyrimidin-5-yloxy)-1H-indazole-3-carboxamide]	< 1000
CC(=O)c1cn(CC(=O)N2C[C@H](F)C[C@H]2C(=O)Nc2cccc(OC(F)(F)F)c2F)c2cc(OCC3CC3)ccc12 [Compound 4, (2S,4R)-1-(2-(3-acetyl-6-(cyclopropylmethoxy)-1H-indol-1-yl)acetyl)-4-fluoro-N-(2-fluoro-3-(trifluoromethoxy)phen-yl)pyrrolidine-2-carboxamide]	< 1000
CCOP(=O)(CC)COc1ccc2c(C(C)=O)cn(CC(=O)N3C[C@H](F)C[C@H]3C(=O)NCc3cccc(Cl)c3F)c2c1 (stereo partly drawn) [Compound 14, ethyl (3-acetyl-1-(2-((2S,4R)-2-(3-chloro-2-fluorobenzylcarbamoyl)-4-fluoropyrrolidin-1-yl)-2-oxoethyl)-1H-indol-6-yloxy)methyl(eth-yl)phosphinate]	< 1000

From patent publication US9732104B2, “Ether compounds for treatment of complement mediated disorders” (Achillion Pharmaceuticals, Inc., priority 2014, dated 2017)
